# Test results published in ChEMBL document CHEMBL1133802, “N,N'-bis[4-(N-alkylamidino)phenyl]homopiperazines as anti-Pneumocystis carinii agents” (2001).
# Key:
# [1] = Binding affinity for Poly (dA-dT) measured as change in melting temperature
# Pneumocystis carinii [2] = assay: Anti-P. carinii activity determined as change in number of Pneumocystis carinii trophozoites from day 1 through day 7 in culture at 1 uM; type: functional
# Pneumocystis carinii [3] = assay: Percent of control growth of Pneumocystis carinii trophozoites was determined; type: functional; parameters: concentration or dose not given beside the values
# Nucleic Acid = assay: Binding affinity for calf thymus DNA measured as change in melting temperature; type: nucleic-acid assay; details: Bos taurus
# Pneumocystis carinii [4] = assay: Anti-P. carinii activity determined as change in number of Pneumocystis carinii trophozoites from day 1 through day 5 in culture at 1 uM; type: functional
Structure (SMILES),ΔTm [1] [°C],ΔTm (Nucleic Acid) [°C],Change in No. of trophozoites x 10E-5 (Pneumocystis carinii [2]),Growth (Pneumocystis carinii [3]) [%],Change in No. of trophozoites x 10E-5 (Pneumocystis carinii [4])
c1cc(N2CCCN(c3ccc(C4=NCCCN4)cc3)CC2)ccc1C1=NCCCN1,21.3,15.5,10.73,32,–
N=C(N)c1ccc(OCCCCCOc2ccc(C(=N)N)cc2)cc1 [PENTAMIDINE],20.6,11.1,–,<0,-3.98
CC(C)/N=C(\N)c1ccc(N2CCCN(c3ccc(/C(N)=N/C(C)C)cc3)CC2)cc1,20,13.8,20.2,61,–
COc1cc(Cc2cnc(N)nc2N)cc(OC)c1OC.Cc1cc(NS(=O)(=O)c2ccc(N)cc2)no1 [CO-TRIMOXAZOLE],–,–,–,<0,–
CC(C)(C)/N=C(\N)c1ccc(N2CCCN(c3ccc(/C(N)=N/C(C)(C)C)cc3)CC2)cc1,7.4,4.1,21.57,65,–
N=C(NCCCO)c1ccc(N2CCCN(c3ccc(/C(N)=N/CCCO)cc3)CC2)cc1,23.6,17.4,34.79,105,–

# Second part, led by results:
ΔTm [1] [°C],ΔTm (Nucleic Acid) [°C],Structure (SMILES),Change in No. of trophozoites x 10E-5 (Pneumocystis carinii [2]),Growth (Pneumocystis carinii [3]) [%],Change in No. of trophozoites x 10E-5 (Pneumocystis carinii [4])
14.7,11.1,N=C(NCCO)c1ccc(N2CCCN(c3ccc(/C(N)=N/CCO)cc3)CC2)cc1,33.62,101,–
26.5,17.9,N=C(NC1CCCC1)c1ccc(N2CCCN(c3ccc(C(=N)NC4CCCC4)cc3)CC2)cc1,34.32,103,–
23.1,15,N=C(N)c1ccc(N2CCCN(c3ccc(C(=N)N)cc3)CC2)cc1,–,<0,-3.32
13.3,11.8,CCCCNC(=N)c1ccc(N2CCCN(c3ccc(C(=N)NCCCC)cc3)CC2)cc1,19.19,58,–
23.6,15.3,N=C(NC1CC1)c1ccc(N2CCCN(c3ccc(C(=N)NC4CC4)cc3)CC2)cc1,10.92,33,–
